Experimental data published in patent US4450269A, “Mono-5-substituted-3-chloro-4H-1,2,6-thiadiazin-4-one antifungal agents” (FMC Corporation, priority 1980, dated 1984).

Columns and labels:
Cladosporium cucumerinum = test: Spore germination test; assay type: cell-based; details: CC, 48 hours
Outline: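 Compound in acetone mixed into water agar at 40, 10, 2.5 and 1 ppm; plates seeded with spore suspension and incubated 48 hours at 24 °C. Percentage germinated spores counted and converted into a germination rating.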

Pythium ultimum = test: Mycelial growth test; assay type: cell-based; details: Globisporangium ultimum, 72 h, PU, read-out: Percent Fungus Growth Inhibition
Uromyces phaseoli = test: whole plant or invertebrate; details: foliar, 24 h, read-out: Percent Disease Control, curative, bean rust

With `Cc1cccc(C)c1Oc1nsnc(Cl)c1=O` [Compound 24, 3-chloro-5-(2,6-dimethylphenoxy)-4H--1,2,6-thiadiazin-4-one] the “Spore Germination Rating” value (Cladosporium cucumerinum; 1.0 ppm) was 0 (0-10), the “Spore Germination Rating” value (Cladosporium cucumerinum; 2.5 ppm) was 0 (0-10) and the “Spore Germination Rating” value (Cladosporium cucumerinum; 10 ppm) was 0 (0-10). The “Spore Germination Rating” value (Cladosporium cucumerinum; 40 ppm) was 0 (0-10), the inhibition at 5 ppm (Pythium ultimum) was 0% and the inhibition at 10 ppm (Pythium ultimum) was 47%. For the same compound, the inhibition at 20 ppm (Pythium ultimum) was 64%, the inhibition at 40 ppm (Pythium ultimum) was 100% and the pest or weed control at 150 ppm (Uromyces phaseoli) was 0%.
With `O=c1c(Cl)nsnc1Oc1ccc(Br)cc1` [Compound 15, 3-chloro-5-(4-bromophenoxy)-4H--1,2,6-thiadiazin-4-one] the “Spore Germination Rating” value (Cladosporium cucumerinum; 1.0 ppm) was 0 (0-10), the “Spore Germination Rating” value (Cladosporium cucumerinum; 2.5 ppm) was 0 (0-10) and the “Spore Germination Rating” value (Cladosporium cucumerinum; 10 ppm) was 0 (0-10). For the same compound, the “Spore Germination Rating” value (Cladosporium cucumerinum; 40 ppm) was 0 (0-10), the inhibition at 5 ppm (Pythium ultimum) was 47% and the inhibition at 10 ppm (Pythium ultimum) was 76%. The inhibition at 20 ppm (Pythium ultimum) was 80%, the inhibition at 40 ppm (Pythium ultimum) was 76% and the pest or weed control at 150 ppm (Uromyces phaseoli) was 90%.
In the case of `O=c1c(Cl)nsnc1Oc1ccccc1Br` [Compound 34, 3-chloro-5-(2-bromophenoxy)-4H-1,2,6,-thiadiazin-4-one], the “Spore Germination Rating” value (Cladosporium cucumerinum; 1.0 ppm) is reported as 1 (10-40), the “Spore Germination Rating” value (Cladosporium cucumerinum; 2.5 ppm) is reported as 0 (0-10) and the “Spore Germination Rating” value (Cladosporium cucumerinum; 10 ppm) is reported as 0 (0-10). The “Spore Germination Rating” value (Cladosporium cucumerinum; 40 ppm) was 0 (0-10), the inhibition at 5 ppm (Pythium ultimum) was 0% and the inhibition at 10 ppm (Pythium ultimum) was 64%. For the same compound, the inhibition at 20 ppm (Pythium ultimum) was 87%, the inhibition at 40 ppm (Pythium ultimum) was 100% and the pest or weed control at 150 ppm (Uromyces phaseoli) was 0%.
In the case of `Cc1cc(C)cc(Oc2nsnc(Cl)c2=O)c1` [Compound 25, 3-chloro-5-(3,5-dimethylphenoxy)-4H--1,2,6-thiadiazin-4-one], the “Spore Germination Rating” value (Cladosporium cucumerinum; 1.0 ppm) is reported as 0 (0-10), the “Spore Germination Rating” value (Cladosporium cucumerinum; 2.5 ppm) is reported as 0 (0-10) and the “Spore Germination Rating” value (Cladosporium cucumerinum; 10 ppm) is reported as 0 (0-10). For the same compound, the “Spore Germination Rating” value (Cladosporium cucumerinum; 40 ppm) was 0 (0-10), the inhibition at 5 ppm (Pythium ultimum) was 0% and the inhibition at 10 ppm (Pythium ultimum) was 47%. The inhibition at 20 ppm (Pythium ultimum) was 100%, the inhibition at 40 ppm (Pythium ultimum) was 100% and the pest or weed control at 150 ppm (Uromyces phaseoli) was 0%.
`CCOC(=O)c1ccc(Oc2nsnc(Cl)c2=O)cc1` [Compound 7, 3-chloro-5-(4-ethoxycarbonylphenoxy)-4H--1,2,6-thiadiazin-4-one] was tested, and the “Spore Germination Rating” value (Cladosporium cucumerinum; 1.0 ppm) was 0 (0-10), the “Spore Germination Rating” value (Cladosporium cucumerinum; 2.5 ppm) was 0 (0-10) and the “Spore Germination Rating” value (Cladosporium cucumerinum; 10 ppm) was 0 (0-10). The “Spore Germination Rating” value (Cladosporium cucumerinum; 40 ppm) was 1 (10-40), the inhibition at 5 ppm (Pythium ultimum) was 11% and the inhibition at 10 ppm (Pythium ultimum) was 29%. For the same compound, the inhibition at 20 ppm (Pythium ultimum) was 80%, the inhibition at 40 ppm (Pythium ultimum) was 100% and the pest or weed control at 150 ppm (Uromyces phaseoli) was 0%.
In the case of `Cc1cccc(Oc2nsnc(Cl)c2=O)c1` [Compound 21, 3-chloro-5-(3-methylphenoxy)-4H--1,2,6-thiadiazin-4-one], the “Spore Germination Rating” value (Cladosporium cucumerinum; 1.0 ppm) is reported as 1 (10-40), the “Spore Germination Rating” value (Cladosporium cucumerinum; 2.5 ppm) is reported as 0 (0-10) and the “Spore Germination Rating” value (Cladosporium cucumerinum; 10 ppm) is reported as 0 (0-10). The “Spore Germination Rating” value (Cladosporium cucumerinum; 40 ppm) was 0 (0-10), the inhibition at 5 ppm (Pythium ultimum) was 27% and the inhibition at 10 ppm (Pythium ultimum) was 33%. The inhibition at 20 ppm (Pythium ultimum) was 100%, the inhibition at 40 ppm (Pythium ultimum) was 100% and the pest or weed control at 150 ppm (Uromyces phaseoli) was 0%.
`N#CCc1ccc(Oc2nsnc(Cl)c2=O)cc1` [Compound 46, 3-chloro-5-[(4-cyanomethyl)-phenoxy]4H--1,2,6-thiadiazin-4-one] was tested, and the “Spore Germination Rating” value (Cladosporium cucumerinum; 1.0 ppm) was 4 (80-100), the “Spore Germination Rating” value (Cladosporium cucumerinum; 2.5 ppm) was 0 (0-10) and the “Spore Germination Rating” value (Cladosporium cucumerinum; 10 ppm) was 0 (0-10). For the same compound, the “Spore Germination Rating” value (Cladosporium cucumerinum; 40 ppm) was 0 (0-10), the inhibition at 5 ppm (Pythium ultimum) was 0% and the inhibition at 10 ppm (Pythium ultimum) was 40%. It also gave an inhibition at 20 ppm (Pythium ultimum) of 87%, an inhibition at 40 ppm (Pythium ultimum) of 100% and a pest or weed control at 150 ppm (Uromyces phaseoli) of 0%.
In the case of `O=c1c(Cl)nsnc1Oc1cc(Cl)cc(Cl)c1` [Compound 20, 3-chloro-5-(3,5-dichlorophenoxy)-4H--1,2,6-thiadiazin-4-one], the “Spore Germination Rating” value (Cladosporium cucumerinum; 1.0 ppm) is reported as 0 (0-10), the “Spore Germination Rating” value (Cladosporium cucumerinum; 2.5 ppm) is reported as 0 (0-10) and the “Spore Germination Rating” value (Cladosporium cucumerinum; 10 ppm) is reported as 0 (0-10). The “Spore Germination Rating” value (Cladosporium cucumerinum; 40 ppm) was 0 (0-10), the inhibition at 5 ppm (Pythium ultimum) was 53% and the inhibition at 10 ppm (Pythium ultimum) was 91%. For the same compound, the inhibition at 20 ppm (Pythium ultimum) was 91%, the inhibition at 40 ppm (Pythium ultimum) was 100% and the pest or weed control at 150 ppm (Uromyces phaseoli) was 0%.
`O=c1c(Cl)nsnc1Oc1cccc(C(F)(F)F)c1` [Compound 44, 3-chloro-5-[(3-trifluoromethyl)phenoxy]-4H--1,2,6-thiadiazin-4-one] was tested, and the “Spore Germination Rating” value (Cladosporium cucumerinum; 1.0 ppm) was 1 (10-40), the “Spore Germination Rating” value (Cladosporium cucumerinum; 2.5 ppm) was 0 (0-10) and the “Spore Germination Rating” value (Cladosporium cucumerinum; 10 ppm) was 0 (0-10). The “Spore Germination Rating” value (Cladosporium cucumerinum; 40 ppm) was 0 (0-10), the inhibition at 5 ppm (Pythium ultimum) was 100% and the inhibition at 10 ppm (Pythium ultimum) was 100%. The inhibition at 20 ppm (Pythium ultimum) was 100%, the inhibition at 40 ppm (Pythium ultimum) was 100% and the pest or weed control at 150 ppm (Uromyces phaseoli) was 0%.
